Data reported in patent publication US12459932B2, “KIF18A inhibitors” (AMGEN INC., priority 2018, dated 2025).

Molecular target: T1, Recombinant human KIF18A (1-467 His-tagged) (Homo sapiens, UniProt Q8NI77)
T1 construct: Recombinant human KIF18A (1-467 His-tagged) protein; His
Assay: KIF18A Enzyme Assay: microtubule-stimulated ATPase activity (ADP-Glo)
Format: biochemical
Details: 30 nM KIF18A, 30 μg/mL pig microtubules, ATP 75 μM (Km), ADP-Glo luminescence
Procedure, shortened: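 Measures microtubule-stimulated ATPase activity as ADP formed, detected by luminescence. Compounds were tested as 2-fold serial dilutions over 22 points. IC50 values came from four-parameter logistic fits.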

T1 sequence (Q8NI77 1-467): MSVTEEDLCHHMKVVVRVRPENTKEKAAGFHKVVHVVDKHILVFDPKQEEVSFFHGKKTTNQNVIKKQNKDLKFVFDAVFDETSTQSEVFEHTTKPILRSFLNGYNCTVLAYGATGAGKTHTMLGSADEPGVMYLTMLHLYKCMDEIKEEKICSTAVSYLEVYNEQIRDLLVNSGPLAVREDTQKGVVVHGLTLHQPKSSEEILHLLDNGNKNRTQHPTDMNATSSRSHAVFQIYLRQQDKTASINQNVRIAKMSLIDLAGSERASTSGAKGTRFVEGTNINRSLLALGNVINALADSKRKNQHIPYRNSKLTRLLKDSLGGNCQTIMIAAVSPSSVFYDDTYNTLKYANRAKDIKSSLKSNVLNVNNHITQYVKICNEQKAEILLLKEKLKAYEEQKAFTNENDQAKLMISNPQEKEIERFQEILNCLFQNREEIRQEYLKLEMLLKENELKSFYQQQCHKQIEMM
T1 sequence (P02550 whole entry partner): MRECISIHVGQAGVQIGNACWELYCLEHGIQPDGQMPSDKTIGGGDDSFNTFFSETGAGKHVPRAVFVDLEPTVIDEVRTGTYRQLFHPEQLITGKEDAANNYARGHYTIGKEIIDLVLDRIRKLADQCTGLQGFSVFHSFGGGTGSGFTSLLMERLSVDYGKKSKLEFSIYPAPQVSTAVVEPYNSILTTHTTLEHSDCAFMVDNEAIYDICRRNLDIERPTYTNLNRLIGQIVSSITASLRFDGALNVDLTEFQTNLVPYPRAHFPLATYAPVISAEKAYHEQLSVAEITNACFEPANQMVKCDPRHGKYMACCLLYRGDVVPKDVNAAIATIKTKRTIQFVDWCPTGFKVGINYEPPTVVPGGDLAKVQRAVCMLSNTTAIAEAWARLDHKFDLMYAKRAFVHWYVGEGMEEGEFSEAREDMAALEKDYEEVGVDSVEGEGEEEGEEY
T1 sequence (P02554 whole entry partner): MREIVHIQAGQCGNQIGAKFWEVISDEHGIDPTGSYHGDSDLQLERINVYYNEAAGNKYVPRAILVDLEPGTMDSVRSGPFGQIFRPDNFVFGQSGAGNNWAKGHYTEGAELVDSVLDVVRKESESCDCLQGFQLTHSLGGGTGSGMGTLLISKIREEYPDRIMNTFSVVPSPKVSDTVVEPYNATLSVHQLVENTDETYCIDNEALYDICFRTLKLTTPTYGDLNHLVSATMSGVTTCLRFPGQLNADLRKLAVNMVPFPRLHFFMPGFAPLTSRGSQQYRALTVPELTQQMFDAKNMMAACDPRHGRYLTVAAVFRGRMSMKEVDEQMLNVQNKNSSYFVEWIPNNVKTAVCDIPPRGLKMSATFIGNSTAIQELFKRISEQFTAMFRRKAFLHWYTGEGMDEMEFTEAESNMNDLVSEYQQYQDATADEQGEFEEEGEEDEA

O=C(Nc1cccc(N2CCOCC2)n1)c1ccc(NS(=O)(=O)CCO)cc1N1CCC2(CC1)CC2 [Example 7-20, 4-((2-Hydroxyethyl)sulfonamido)-N-(6-morpholinopyridin-2-yl)-2-(6-azaspiro[2.5]octan-6-yl)benzamide]
IC50: 36 nM

Cc1cc(NC(=O)c2ccc(NS(C)(=O)=O)cc2N2CCC3(CC2)CC3)nc(N2CCC(F)(F)CC2)c1 [Example 7-21, N-(6-(4,4-Difluoropiperidin-1-yl)-4-methylpyridin-2-yl)-4-(methylsulfonamido)-2-(6-azaspiro[2.5]octan-6-yl)benzamide]
IC50: 49 nM

Cc1cc(NC(=O)c2ccc(NS(=O)(=O)C(C)(C)C)cc2N2CCC3(CC2)CC3)nc(N2CCC(F)(F)CC2)c1 [Example 7-22, N-(6-(4,4-Difluoropiperidin-1-yl)-4-methylpyridin-2-yl)-4-((1,1-dimethylethyl)sulfonamido)-2-(6-azaspiro[2.5]octan-6-yl)benzamide]
IC50: 103 nM

Cc1cc(NC(=O)c2ccc(NS(=O)(=O)C3CCC3)cc2N2CCC3(CC2)CC3)nc(N2CCC(F)(F)CC2)c1 [Example 7-23, 4-(Cyclobutanesulfonamido)-N-(6-(4,4-difluoropiperidin-1-yl)-4-methylpyridin-2-yl)-2-(6-azaspiro[2.5]octan-6-yl)benzamide]
IC50: 110 nM

Cc1cc(NC(=O)c2ccc(NS(=O)(=O)CC3CC3)cc2N2CCC3(CC2)CC3)nc(N2CCC(F)(F)CC2)c1 [Example 7-24, 4-((Cyclopropylmethyl)sulfonamido)-N-(6-(4,4-difluoropiperidin-1-yl)-4-methylpyridin-2-yl)-2-(6-azaspiro[2.5]octan-6-yl)benzamide]
IC50: 186 nM

Cc1cc(NC(=O)c2ccc(NS(=O)(=O)C3CC3)cc2N2CCC3(CC2)CC3)nc(N2CCC(F)(F)CC2)c1 [Example 7-25, 4-(Cyclopropanesulfonamido)-N-(6-(4,4-difluoropiperidin-1-yl)-4-methylpyridin-2-yl)-2-(6-azaspiro[2.5]octan-6-yl)benzamide]
IC50: 39 nM

O=C(Nc1cccc(N2CCC(F)(F)CC2)n1)c1ccc(NS(=O)(=O)CCO)cc1N1CCC2(CC1)CC2 [Example 7-26, N-(6-(4,4-Difluoropiperidin-1-yl)pyridin-2-yl)-4-((2-hydroxyethyl)sulfonamido)-2-(6-azaspiro[2.5]octan-6-yl)benzamide]
IC50: 23 nM

Cc1cc(NC(=O)c2ccc(NS(C)(=O)=O)cc2N2CCC3(CC2)CC3)nc(N2CC(F)(F)C2)c1 [Example 7-27, N-(6-(3,3-Difluoroazetidin-1-yl)-4-methylpyridin-2-yl)-4-(methylsulfonamido)-2-(6-azaspiro[2.5]octan-6-yl)benzamide]
IC50: 14 nM

Cc1cc(NC(=O)c2ccc(NS(=O)(=O)C(C)C)cc2N2CCC3(CC2)CC3)nc(N2CC(F)(F)C2)c1 [Example 7-28, N-(6-(3,3-Difluoroazetidin-1-yl)-4-methylpyridin-2-yl)-4-((1-methylethyl)sulfonamido)-2-(6-azaspiro[2.5]octan-6-yl)benzamide]
IC50: 68 nM

Cc1cc(NC(=O)c2ccc(NS(=O)(=O)C(C)(C)C)cc2N2CCC3(CC2)CC3)nc(N2CC(F)(F)C2)c1 [Example 7-29, N-(6-(3,3-Difluoroazetidin-1-yl)-4-methylpyridin-2-yl)-4-((1,1-dimethylethyl)sulfonamido)-2-(6-azaspiro[2.5]octan-6-yl)benzamide]
IC50: 134 nM

Cc1cc(NC(=O)c2ccc(NS(=O)(=O)C3CCC3)cc2N2CCC3(CC2)CC3)nc(N2CC(F)(F)C2)c1 [Example 7-30, 4-(Cyclobutanesulfonamido)-N-(6-(3,3-difluoroazetidin-1-yl)-4-methylpyridin-2-yl)-2-(6-azaspiro[2.5]octan-6-yl)benzamide]
IC50: 78 nM

Cc1cc(NC(=O)c2ccc(NS(=O)(=O)CC3CC3)cc2N2CCC3(CC2)CC3)nc(N2CC(F)(F)C2)c1 [Example 7-31, 4-((Cyclopropylmethyl)sulfonamido)-N-(6-(3,3-difluoroazetidin-1-yl)-4-methylpyridin-2-yl)-2-(6-azaspiro[2.5]octan-6-yl)benzamide]
IC50: 59 nM

Cc1cc(NC(=O)c2ccc(NS(=O)(=O)C3COC3)cc2N2CCC3(CC2)CC3)nc(N2CC(F)(F)C2)c1 [Example 7-32, N-(6-(3,3-Difluoroazetidin-1-yl)-4-methylpyridin-2-yl)-4-(oxetane-3-sulfonamido)-2-(6-azaspiro[2.5]octan-6-yl)benzamide]
IC50: 25 nM

Cc1cc(NC(=O)c2ccc(NS(=O)(=O)C3CC3)cc2N2CCC3(CC2)CC3)nc(N2CC(F)(F)C2)c1 [Example 7-34, 4-(Cyclopropanesulfonamido)-N-(6-(3,3-difluoroazetidin-1-yl)-4-methylpyridin-2-yl)-2-(6-azaspiro[2.5]octan-6-yl)benzamide]
IC50: 41 nM

C[C@@H]1CN(c2cccc(NC(=O)c3ccc(NS(=O)(=O)CCF)cc3N3CCC4(CC3)CC4)n2)CCO1 [Example 7-35, (R)-4-((2-Fluoroethyl)sulfonamido)-N-(6-(2-methylmorpholino)pyridin-2-yl)-2-(6-azaspiro[2.5]octan-6-yl)benzamide]
IC50: 24 nM

Cc1cc(NC(=O)c2ccc(NS(=O)(=O)CF)cc2N2CCC3(CC2)CC3)nc(N2CCO[C@H](C)C2)c1 [Example 7-36, (R)-4-((Fluoromethyl)sulfonamido)-N-(4-methyl-6-(2-methylmorpholino)pyridin-2-yl)-2-(6-azaspiro[2.5]octan-6-yl)benzamide]
IC50: 62 nM

CCS(=O)(=O)Nc1ccc(C(=O)Nc2cccc(N3CCO[C@H](C)C3)n2)c(N2CCC3(CC2)CC3)c1 [Example 7-37, (R)-4-(Ethylsulfonamido)-N-(6-(2-methylmorpholino)pyridin-2-yl)-2-(6-azaspiro[2.5]octan-6-yl)benzamide]
IC50: 50 nM

C[C@@H]1CN(c2cccc(NC(=O)c3ccc(NS(=O)(=O)CF)cc3N3CCC4(CC3)CC4)n2)CCO1 [Example 7-38, (R)-4-((Fluoromethyl)sulfonamido)-N-(6-(2-methylmorpholino)pyridin-2-yl)-2-(6-azaspiro[2.5]octan-6-yl)benzamide]
IC50: 48 nM

C[C@@H]1CN(c2cccc(NC(=O)c3ccc(NS(=O)(=O)CC(F)(F)F)cc3N3CCC4(CC3)CC4)n2)CCO1 [Example 7-39, (R)-N-(6-(2-methylmorpholino)pyridin-2-yl)-2-(6-azaspiro[2.5]octan-6-yl)-4-((2,2,2-trifluoroethyl)sulfonamido)benzamide]
IC50: 135 nM

C[C@@H]1CN(c2cccc(NC(=O)c3ccc(NS(=O)(=O)C(F)(F)F)cc3N3CCC4(CC3)CC4)n2)CCO1 [Example 7-41, (R)-N-(6-(2-Methylmorpholino)pyridin-2-yl)-2-(6-azaspiro[2.5]octan-6-yl)-4-((trifluoromethyl)sulfonamido)benzamide]
IC50: 207 nM

C[C@@H]1CN(c2cccc(NC(=O)c3ccc(NS(=O)(=O)CC(C)(C)O)cc3N3CCC4(CC3)CC4)n2)CCO1 [Example 7-42, (R)-4-((2-Hydroxy-2-methylpropyl)sulfonamido)-N-(6-(2-methylmorpholino)pyridin-2-yl)-2-(6-azaspiro[2.5]octan-6-yl)benzamide]
IC50: 111 nM

CC(C)(C)NS(=O)(=O)c1cccc(NC(=O)c2ccc(NS(C)(=O)=O)cc2N2CCC3(CC2)CC3)n1 [Example 7-43, N-(6-(N-(tert-Butyl)sulfamoyl)pyridin-2-yl)-4-(methylsulfonamido)-2-(6-azaspiro[2.5]octan-6-yl)benzamide]
IC50: 55 nM

O=C(Nc1cncc(N2CCC(F)(F)CC2)n1)c1ccc(NS(=O)(=O)CCO)cc1N1CCC2(CC1)CC2 [Example 7-44, N-(6-(4,4-Difluoropiperidin-1-yl)pyrazin-2-yl)-4-((2-hydroxyethyl)sulfonamido)-2-(6-azaspiro[2.5]octan-6-yl)benzamide]
IC50: 16 nM

Cc1cc(NC(=O)c2ccc(NS(=O)(=O)C3(CO)CC3)cc2N2CCC3(CC2)CC3)nc(N2CCC(F)(F)CC2)c1 [Example 10, N-(6-(4,4-Difluoropiperidin-1-yl)-4-methylpyridin-2-yl)-4-((1-(hydroxymethyl)cyclopropane)-1-sulfonamido)-2-(6-azaspiro[2.5]octan-6-yl)benzamide]
IC50: 122 nM

C[C@@H]1CN(c2cccc(NC(=O)c3ccc(NS(=O)(=O)C4(CO)CC4)cc3N3CCC4(CC3)CC4)n2)CCO1 [Example 10-1, (R)-4-((1-(Hydroxymethyl)cyclopropane)-1-sulfonamido)-N-(6-(2-methylmorpholino)pyridin-2-yl)-2-(6-azaspiro[2.5]octan-6-yl) benzamide]
IC50: 57 nM

Cc1cc(NC(=O)c2ccc(NS(=O)(=O)C3(CO)CC3)cc2N2CCC3(CC2)CC3)nc(N2CC(F)(F)C2)c1 [Example 10-2, N-(6-(3,3-Difluoroazetidin-1-yl)-4-methylpyridin-2-yl)-4-((1-(hydroxymethyl)cyclopropane)-1-sulfonamido)-2-(6-azaspiro[2.5]octan-6-yl)benzamide]
IC50: 76 nM

Cc1cc(NC(=O)c2ccc(NS(=O)(=O)CCO)cc2N2CCC3(CC2)CC3)nc(N2CC(F)(F)C2)c1 [Example 11, N-(6-(3,3-Difluoroazetidin-1-yl)-4-methylpyridin-2-yl)-4-((2-hydroxyethyl)sulfonamido)-2-(6-azaspiro[2.5]octan-6-yl)benzamide]
IC50: 31 nM

CC1(S(=O)(=O)Nc2ccc(C(=O)Nc3cccc(OCC4CC4)n3)c(N3CCC4(CC3)CC4)c2)CC1 [Example 14, N-(6-(Cyclopropylmethoxy)pyridin-2-yl)-4-((1-methylcyclopropane)-1-sulfonamido)-2-(6-azaspiro[2.5]octan-6-yl)benzamide]
IC50: 19 nM

CC(Oc1cccc(NC(=O)c2ccc(NS(=O)(=O)CCO)cc2N2CCC3(CC2)CC3)n1)C1CC1 (centres unmarked) [Example 16-1, N-(6-(1-Cyclopropylethoxy)pyridin-2-yl)-4-((2-hydroxyethyl)sulfonamido)-2-(6-azaspiro[2.5]octan-6-yl)benzamide]
IC50: 51 nM
